Results reported in US12180476B2, “Use of PIWI-interacting RNA piR-hsa-211106” (Qingdao University, priority 2022, dated 2024).
Entries after “also recorded” stand apart in the source; their conditions may differ.

How the values were obtained:
[1] = test system: lung adenocarcinoma cells A549; experiment: CCK8 proliferation activity assay; assay type: cell-based; settings: 0, 1, 2, 3, and 4 days after transfection, FIG. 1
Experimental: (§1) This example related to a process of transfecting an agonist to lung adenocarcinoma cells: after the lung adenocarcinoma cells were passaged to a cell density of about 30-50%, the agonist was transfected to the lung adenocarcinoma cells by lipo3000. 5 μl (100 pmol) of the agonist was added to an EP tube containing 95 μl of a DMEM medium by pipetting and mixing, 5 μl of lipo3000 was added to the EP tube containing 95 μl of the DMEM medium by pipetting and mixing, the two materials were mixed at a volume ratio of 1:1 to form a transfection mixture, the mixture was allowed to stand at a room temperature for 20 min and added into a culture plate, and an analysis at gene and protein levels was conducted after 48 h.

[2] = test system: lung adenocarcinoma cells HCC2279; experiment: CCK8 proliferation activity assay; assay type: cell-based; settings: 0, 1, 2, 3, and 4 days after transfection, FIG. 1
Experimental: as §1

[3] = test system: lung adenocarcinoma cells A549; experiment: Edu staining proliferation assay; assay type: cell-based; settings: after transfection for two days, FIGS. 2 and 3
Experimental: as §1, with “h. […]” for “h.”

[4] = test system: lung adenocarcinoma cells HCC2279; experiment: Edu staining proliferation assay; assay type: cell-based; settings: after transfection for two days, FIGS. 2 and 3
Experimental: as §1, with “h. […]” for “h.”

[5] = test system: lung adenocarcinoma cells A549; experiment: Transwell chamber migration assay; assay type: cell-based; settings: after transfection for two days, 24 h migration, FIGS. 4 and 5
Experimental: as §1

[6] = test system: lung adenocarcinoma cells HCC2279; experiment: Transwell chamber migration assay; assay type: cell-based; settings: after transfection for two days, 24 h migration, FIGS. 4 and 5
Experimental: as §1

[7] = test system: lung adenocarcinoma cells A549; experiment: Scratch experiment migration assay; assay type: cell-based; settings: after transfection for two days, 0 h and 24 h after scratching, FIGS. 6 and 7
Experimental: as §1

[8] = test system: lung adenocarcinoma cells HCC2279; experiment: Scratch experiment migration assay; assay type: cell-based; settings: after transfection for two days, 0 h and 24 h after scratching, FIGS. 6 and 7
Experimental: as §1

[9] = test system: lung adenocarcinoma cells A549; experiment: Apoptosis by flow cytometry (Annexin V-FITC/PI); assay type: cell-based; settings: after transfection for two days, FIGS. 8 and 9
Experimental: (§2) This example related to a process of transfecting an agonist to lung adenocarcinoma cells: after the lung adenocarcinoma cells were passaged to a cell density of about 30-50%, the agonist was transfected to the lung adenocarcinoma cells by lipo3000. […]
(§3) This example related to a detection process of apoptosis of lung adenocarcinoma cells A549 and HCC2279 by a flow cytometry: the lung adenocarcinoma cells were cultured, the cells in the experimental group were transfected with a PIWI-interacting RNA piR-hsa-211106, after transfection for two days, apoptosis was detected by Annexin V-FITC/PI (Shanghai YEASEN Biotechnology Co., Ltd): • (1) after the lung adenocarcinoma cells were digested with a trypsin without EDTA, centrifugation was conducted at 300 g and 4° C. for 5 min and the cells were collected; • (2) the cells were washed twice with a pre-cooled PBS, centrifugation was conducted at 300 g and 4° C. for 5 min each time and 1-5×10^5 cells were collected; • (3) the PBS was pipetted and discarded, and 1× binding buffer was added to resuspend the cells; • (4) annexin V-FITC and a PI staining solution were added, gentle mixing was conducted, and reaction was conducted in dark at room temperature for 10-15 min; and • (5) 1× binding buffer was added, even mixing was conducted, an obtained mixture was placed on ice, and detection was conducted with the flow cytometry within 1 h.

[10] = test system: lung adenocarcinoma cells HCC2279; experiment: Apoptosis by flow cytometry (Annexin V-FITC/PI); assay type: cell-based; settings: after transfection for two days, FIGS. 8 and 9
Experimental: as §2, §3

[11] = target: T1, pyruvate carboxylase (Homo sapiens, UniProt P11498); experiment: Biotin-coupled probe RNA pull-down assay with western blot; assay type: binding; settings: biotinylated piR-hsa-211106 probe, lung adenocarcinoma cell lysate; FIG. 10
T1 construct: 1×10^7 lung adenocarcinoma cells were harvested, lysed and subjected to an ultrasonic treatment; endogenous in cells
T1 sequence (P11498 21-1178): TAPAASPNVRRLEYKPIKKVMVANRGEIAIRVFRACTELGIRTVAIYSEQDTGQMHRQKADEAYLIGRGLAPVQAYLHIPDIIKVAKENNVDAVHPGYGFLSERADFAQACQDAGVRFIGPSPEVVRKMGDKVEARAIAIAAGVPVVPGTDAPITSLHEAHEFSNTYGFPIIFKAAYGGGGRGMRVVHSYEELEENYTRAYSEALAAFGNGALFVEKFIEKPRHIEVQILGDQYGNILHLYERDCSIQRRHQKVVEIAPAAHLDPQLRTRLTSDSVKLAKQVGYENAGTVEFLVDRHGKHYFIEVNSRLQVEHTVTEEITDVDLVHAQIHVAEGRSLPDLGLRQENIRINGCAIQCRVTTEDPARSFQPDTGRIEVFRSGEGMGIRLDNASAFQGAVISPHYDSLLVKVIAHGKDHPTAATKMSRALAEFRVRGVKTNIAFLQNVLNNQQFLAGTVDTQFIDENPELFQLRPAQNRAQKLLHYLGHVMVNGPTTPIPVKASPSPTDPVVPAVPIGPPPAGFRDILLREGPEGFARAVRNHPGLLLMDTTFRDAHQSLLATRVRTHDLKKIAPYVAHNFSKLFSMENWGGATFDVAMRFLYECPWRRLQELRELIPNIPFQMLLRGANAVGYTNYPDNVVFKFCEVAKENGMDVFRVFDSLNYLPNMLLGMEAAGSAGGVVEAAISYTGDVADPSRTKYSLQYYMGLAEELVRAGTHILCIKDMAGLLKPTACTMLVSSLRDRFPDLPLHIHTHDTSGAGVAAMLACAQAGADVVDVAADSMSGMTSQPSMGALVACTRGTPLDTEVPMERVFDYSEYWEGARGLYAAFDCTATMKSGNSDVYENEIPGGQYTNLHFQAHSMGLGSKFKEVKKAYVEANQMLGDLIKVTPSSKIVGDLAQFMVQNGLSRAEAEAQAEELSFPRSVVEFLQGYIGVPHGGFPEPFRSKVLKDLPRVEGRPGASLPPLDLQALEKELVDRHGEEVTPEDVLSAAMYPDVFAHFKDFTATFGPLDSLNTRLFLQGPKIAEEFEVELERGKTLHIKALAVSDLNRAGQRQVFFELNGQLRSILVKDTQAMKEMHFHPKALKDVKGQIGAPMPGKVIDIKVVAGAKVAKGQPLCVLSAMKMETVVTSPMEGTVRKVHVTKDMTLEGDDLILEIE

[12] = test system: pyruvate carboxylase; experiment: qRT-PCR analysis of gene expression level in lung adenocarcinoma cells; assay type: cell-based; settings: FIG. 11
Experimental: as §1, with “h. […]” for “h.”

[13] = test system: pyruvate carboxylase; experiment: Western blot analysis of protein expression level in lung adenocarcinoma cells; assay type: cell-based; settings: GAPDH internal reference, FIG. 12
Experimental: as §1, with “h. […]” for “h.”
the protein samples were separated by an SDS-PAGE electrophoresis, the separated proteins were transferred to a PVDF membrane, the membrane was blocked with 5% powdered skim milk for 1 h, the membrane was washed, an incubation with a primary antibody (PC, GAPDH) was conducted overnight in a 4° C. refrigerator, the membrane was washed, an incubation with a secondary antibody was conducted at room temperature for 1 h, the membrane was washed, a target band was obtained by ECL chemiluminescence method, the band was subjected to a grayscale scanning by using a Quantity One software and a GAPDH internal reference was used for correction.

[14] = test system: A549 cells; experiment: Tumor-bearing model of a nude mouse, intratumoral treatment; assay type: in vivo, BALB/c nude mice
Experimental: This example related to a process of constructing a tumor-bearing model of a nude mouse: 3- to 4-week-old BALB/c nude mice (SiPeiFu Laboratory Animal Technology Co., Ltd) were taken and used for an experiment after adapting to local conditions for 1 week, 2×10^7 of A549 cells were injected subcutaneously into left and right armpits of the mice, and when an implanted tumor reached 50 mm^3, a drug treatment was conducted.
This example related to a drug-targeted treatment process of a tumor-bearing model of a nude mouse: • The nude mice were divided into two groups: a cisplatin experimental group and a normal saline control group, with 5 nude mice in each group; • The nude mice in the experimental group were injected intraperitoneally with cisplatin (5 mg/kg body weight/week), 50 μM of a PIWI-interacting RNA piR-hsa-211106 agonist was injected directly into a tumor on a right side and piR-NC (Shanghai GenePharma Co., Ltd) was injected into a tumor on a left side as a control group of the cisplatin treatment group; • An equal volume of normal saline was injected intraperitoneally into the nude mice in the control group, the PIWI-interacting RNA piR-hsa-211106 agonist was used to treat the tumor as above, the PIWI-interacting RNA piR-hsa-211106 agonist was used for treatment every other day for 28 days, and the tumor volume was measured once a week; the mice were sacrificed at an end of the experiment, and xenografts were peeled off and photographed.

[15] = injected into tumors in nude mice, versus control groups

Question: “piR-hsa-211106: PIWI-interacting RNA, SEQ ID NO:1 TCCGGCTCGAAGGACTTCGTCTGTAATTTT; used as double-strand agonist with cholesterol, thio skeleton and methoxy modifications (cholesterol, phosphorothioate and 2'-OMe modifications, pattern not given here, duplex)” was tested. Which “cell proliferation activity (OD value at 450 nm, CCK8)” value [1] did it give?
Answer: significantly inhibit the proliferation

Question: And the “cell proliferation activity (OD value at 450 nm, CCK8)” value [2]?
Answer: significantly inhibit the proliferation

Question: What about the “proportion of proliferating cells (Edu staining)” value [3] of the same substance?
Answer: significantly inhibit the growth

Question: What about the “proportion of proliferating cells (Edu staining)” value [4] of the same substance?
Answer: significantly inhibit the growth

Question: And the “migration ability (Transwell chamber, migrated cells counted)” value [5]?
Answer: significantly inhibit the migration ability

Question: What about the “migration ability (Transwell chamber, migrated cells counted)” value [6] of the same substance?
Answer: significantly inhibit the migration ability

Question: And the “migration ability (scratch experiment, relative migration rate)” value [7]?
Answer: significantly inhibit the migration ability

Question: What about the “migration ability (scratch experiment, relative migration rate)” value [8] of the same substance?
Answer: significantly inhibit the migration ability

Question: What about the “apoptosis (flow cytometry)” value [9] of the same substance?
Answer: significantly cause the apoptosis

Question: And the “apoptosis (flow cytometry)” value [10]?
Answer: significantly cause the apoptosis

Question: What about the “binding to pyruvate carboxylase (RNA pull-down)” value [11] of the same substance?
Answer: binds to the PC; also recorded: can bind to a pyruvate carboxylase

Question: What about the “expression of pyruvate carboxylase (gene expression level, qRT-PCR)” value [12] of the same substance?
Answer: significantly inhibit an expression

Question: What about the “expression of pyruvate carboxylase at a protein level (WB)” value [13] of the same substance?
Answer: can regulate an expression of a pyruvate carboxylase at a protein level

Question: And the “therapeutic effect compared with positive control cisplatin” value ([14]; 50 μM agonist injected directly into tumor every other day for 28 days, cisplatin 5 mg/kg body weight/week intraperitoneally, FIGS. 13, 14 and 15)?
Answer: comparable to that of the positive control group treated with cisplatin; also recorded: comparable therapeutic effect as the positive control drug cisplatin

Question: What about the “growth of lung adenocarcinoma in vivo” value ([14]; A549 tumor in nude mice, agonist intratumoral every other day for 28 days) of the same substance?
Answer: capable of inhibiting growth of lung adenocarcinoma in vivo

Question: And the “effect in combination with cisplatin” value ([14]; agonist intratumoral plus cisplatin 5 mg/kg body weight/week intraperitoneally, 28 days)?
Answer: increases chemical sensitivity of the chemotherapeutic drug cisplatin and has a synergistic effect

Question: And the tumor volume [14, 15]?
Answer: smaller than those of the control groups

Question: What about the tumor weight [14, 15] of the same substance?
Answer: smaller than those of the control groups
